Key:
[1] = target: GST-fused human Keap1 (amino acid residues: 325-642) protein (Homo sapiens (Human), UniProt Q14145); assay: FP assay (in vitro): inhibition of binding between Nrf2 and Keap1 by fluorescence polarization; details: 20 nM GST-fused human Keap1, 10 nM FITC-labeled Nrf2 peptide, 2 hr at room temperature
[2] = tested on: NQO1 activity in Hepa1c1c7 cells; assay: NAD(P)H: quinone oxidoreductase-1 (NQO1) enzyme induction assay (in vitro); assay type: cell-based, mouse; details: Mus musculus, Hepa-1c1c7, NQO1 activity upon addition of 400 nM of test compound, about 48 hr, ratio from the base without the compound
How it was run: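 Mouse Hepa1c1c7 hepatoma cells were treated with 400 nM compound for about 48 h, then lysed with digitonin/EDTA. NQO1 activity was measured as menadione-mediated MTT reduction with a G6P/G6PDH NADPH-regenerating system, stopped with dicoumarol, and read at A610. Values are the activity ratio versus untreated base wells.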

[3] = tested on: NQO1 activity in rat kidney; assay: NQO1 activity assay in rat kidney (single administration); assay type: in vivo; details: SD rats (male), oral 3 mg/kg single administration; for NQO1 activity 24 hr later: 24 hr after administration; for NQO1 activity 48 hr later: 48 hr after administration
Description: Experimental Example 3: NQO1 Activity Assay in Rat Kidney (Single Administration)
The test compound solution for administration was prepared by dissolving or suspending the test compound in 0.5 w/v % methylcellulose solution.
The test compound was administered orally (3 mg/kg, 2 mL/kg) to SD rats (male, Japan SLC). The solvent group was used as a control group. The test compound group was anesthetized with isoflurane 24 and 48 hr after administration, and the control group was anesthetized with isoflurane 24 hr after administration, and the rats were euthanized by abdominal aortotomy with blood release. The right kidney was immediately removed, and the renal cortex and medullary portion of the kidney were cut out for measurement of NQO1 activity.
Homogenization buffer (10 mM Tris-HCl, 250 mM sucrose, pH 7.4) and assay buffer (25 mM Tris-HCl, 0.7 mg/mL BSA, pH 7.4) were prepared.
1 mL of homogenization buffer was added to the collected kidney samples, and the organs were homogenized uniformly in ice using a Polytron homogenizer (PHYSCOTRON, Microtec Co. Ltd.) or TissueLyser II (QIAGEN). Homogenized samples were centrifuged (MX-305, TOMY) at 9000×g for 20 minutes at 4° C. The supernatant was then scalped with homogenization buffer to approximately 2 ml and ultracentrifuged (centrifuge; OptimaL-100XP, rotor; 50.4 Ti, Beckman Coulter) at 100,000×g for 60 min at 4° C. The protein concentration of the supernatant was measured with the Protein Assay BCA kit (#06385-00, Nacalai Tesque), and samples were diluted to 5 μg protein/30 μL with homogenization buffer. 2,6-Dichlorophenolindophenol (DCPIP) reaction buffer (assay buffer with 200 μM NADPH and 160 μM DCPIP, containing 1/1000 volume of DMSO or 20 μM dicoumarol DMSO solution) was prepared immediately before the measurement.
The 230 μL of each concentration of calibration solution was added to a 96-well plate (CORNING, 9017). To 30 μL of the sample solution was added 200 μL of DMSO-containing DCPIP reaction buffer or dicoumarol-containing DCPIP reaction buffer. The absorbance at 600 nm was immediately measured on a SpectraMax PLUS384 (Molecular devices) at 1 minute intervals for 10 minutes. […] A regression line was used to create the calibration curve.
The difference between the DCPIP decrease in the wells with DMSO-containing DCPIP reaction buffer and the DCPIP decrease in the wells with dicoumarol-containing DCPIP reaction buffer was divided by the amount of protein (mg) and time (min) to obtain NQO1 activity (nmol/mg/min). In Table 4 below, the NQO1 activity of the test compound-administered groups is expressed as a percentage of the control group.

Sequence of GST-fused human Keap1 (amino acid residues: 325-642) protein (Q14145 325-624 limits assumed): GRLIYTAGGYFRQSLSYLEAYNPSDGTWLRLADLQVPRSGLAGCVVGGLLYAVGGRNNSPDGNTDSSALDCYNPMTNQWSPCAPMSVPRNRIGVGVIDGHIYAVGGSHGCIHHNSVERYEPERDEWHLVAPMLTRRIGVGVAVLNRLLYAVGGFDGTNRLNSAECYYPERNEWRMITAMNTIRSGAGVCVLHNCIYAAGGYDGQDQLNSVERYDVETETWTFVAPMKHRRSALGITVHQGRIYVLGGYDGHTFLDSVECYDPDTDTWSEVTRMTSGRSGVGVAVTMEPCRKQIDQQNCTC

| Compound | IC50 [1] | fold induction at 0.4 µM [2] | NQO1 activity 24 hr later [3] | NQO1 activity 48 hr later [3] |
| --- | --- | --- | --- | --- |
| CC[C@@H]1CN(Cc2cc([C@@H](c3ccc4c(nnn4C)c3C)C(C)(C)C(=O)O)cc3ccsc23)Cc2nc(O)ccc2O1 [Example 11, (3S)-3-(1,4-Dimethyl-1H-benzotriazol-5-yl)-3-(7-{[(2R)-2-ethyl-7-hydroxy-2,3-dihydropyrido[2,3-f][1,4]oxazepin-4(5H)-yl]methyl}-1-benzothiophen-5-yl)-2,2-dimethylpropanoic acid] | ≤ 0.01 µM | > 5 | 9.3 percentage of the control group | 11.0 percentage of the control group |
| Cc1c([C@H](c2cc(CN3Cc4nc(O)ccc4OC4(CC4)C3)c3sccc3c2)C(C)(C)C(=O)O)ccc2c1nnn2C [Example 13, (3S)-3-(1,4-Dimethyl-1H-benzotriazol-5-yl)-3-{7-[(7′-hydroxy-3′H-spiro[cyclopropane-1,2′-pyrido[2,3-f][1,4]oxazepin]-4′(5′H)-yl)methyl]-1-benzothiophen-5-yl}-2,2-dimethylpropanoic acid] | 0.01 to 0.03 µM | > 5 | 6.5 percentage of the control group | 11.7 percentage of the control group |
